Experimental data as given in the NIST ThermoML archive (doi:10.1021/je020189p).
Values joined by “and” are separate entries in the source; they are usually repeats but may differ in a detail not shown here. Equal values may be shown once.

Conditions: Liquid

[Cl-].[Cl-].[Cl-].[Gd+3] [gadolinium(III) chloride]
Conditions | vapor or sublimation pressure
930 K | 3.31e-05 kPa
952 K | 6.76e-05 kPa
957 K | 8.32e-05 kPa
958 K | 6.31e-05 kPa
965 K | 7.76e-05 kPa
970 K | 0.000129 kPa
973 K | 9.77e-05 kPa
983 K | 0.000141 kPa and 0.000178 kPa
994 K | 0.000195 kPa
996 K | 0.000224 kPa
1002 K | 0.000324 kPa
1004 K | 0.000251 kPa
1011 K | 0.000331 kPa
1015 K | 0.000355 kPa
1022 K | 0.000562 kPa
1023 K | 0.000479 kPa
1024 K | 0.00049 kPa
1042 K | 0.000794 kPa
1044 K | 0.001 kPa
1046 K | 0.001 kPa
1052 K | 0.00102 kPa
1054 K | 0.00141 kPa
1061 K | 0.00135 kPa
1062 K | 0.00138 kPa
1071 K | 0.00174 kPa
1076 K | 0.00219 kPa
1082 K | 0.00234 kPa
1086 K | 0.00269 kPa
1090 K | 0.00275 kPa
1091 K | 0.00339 kPa
1093 K | 0.00302 kPa
1099 K | 0.00339 kPa
1103 K | 0.00437 kPa
1107 K | 0.00417 kPa
1113 K | 0.00575 kPa
1116 K | 0.00513 kPa
1117 K | 0.00603 kPa
1120 K | 0.00589 kPa and 0.00603 kPa
1126 K | 0.00759 kPa and 0.00661 kPa
1134 K | 0.00871 kPa
1135 K | 0.00794 kPa
1138 K | 0.00977 kPa
1144 K | 0.01 kPa
1147 K | 0.0129 kPa
1151 K | 0.0126 kPa
1154 K | 0.0132 kPa
1156 K | 0.0158 kPa
1165 K | 0.0182 kPa
1170 K | 0.0219 kPa
1177 K | 0.024 kPa
1187 K | 0.0324 kPa
1190 K | 0.0316 kPa
1203 K | 0.0407 kPa
1213 K | 0.0501 kPa

[Cl][Tb]([Cl])[Cl] [terbium trichloride]
Conditions | vapor or sublimation pressure
921 K | 6.76e-05 kPa
931 K | 0.0001 kPa
937 K | 0.000135 kPa
942 K | 0.000209 kPa
943 K | 0.00017 kPa
946 K | 0.000166 kPa
950 K | 0.000204 kPa
953 K | 0.000219 kPa
957 K | 0.000331 kPa and 0.000245 kPa
961 K | 0.000288 kPa
965 K | 0.000302 kPa
967 K | 0.000331 kPa
971 K | 0.000501 kPa and 0.000372 kPa
975 K | 0.000407 kPa
976 K | 0.000331 kPa
979 K | 0.000447 kPa and 0.000331 kPa
980 K | 0.000501 kPa
984 K | 0.000537 kPa
988 K | 0.000832 kPa
990 K | 0.000661 kPa
992 K | 0.000501 kPa
994 K | 0.000708 kPa and 0.000741 kPa
995 K | 0.000501 kPa
998 K | 0.000794 kPa
999 K | 0.00107 kPa and 0.000912 kPa
1006 K | 0.00105 kPa and 0.000741 kPa
1009 K | 0.000741 kPa
1010 K | 0.00123 kPa and 0.00115 kPa
1011 K | 0.00148 kPa
1017 K | 0.00132 kPa [middle of 4 runs]
1020 K | 0.00158 kPa
1021 K | 0.00191 kPa
1024 K | 0.00166 kPa
1026 K | 0.00178 kPa
1027 K | 0.00123 kPa
1028 K | 0.00123 kPa
1029 K | 0.00209 kPa
1033 K | 0.00257 kPa
1034 K | 0.00214 kPa
1035 K | 0.00148 kPa
1037 K | 0.00251 kPa and 0.00158 kPa
1038 K | 0.00257 kPa
1043 K | 0.00263 kPa and 0.00191 kPa
1045 K | 0.00355 kPa
1047 K | 0.00331 kPa
1048 K | 0.00209 kPa
1053 K | 0.00447 kPa
1054 K | 0.00355 kPa and 0.00245 kPa
1056 K | 0.00372 kPa
1057 K | 0.00417 kPa
1058 K | 0.00263 kPa
1059 K | 0.00389 kPa
1064 K | 0.00575 kPa
1065 K | 0.00513 kPa
1067 K | 0.00372 kPa
1071 K | 0.00676 kPa and 0.00372 kPa
1072 K | 0.00525 kPa
1073 K | 0.00525 kPa
1075 K | 0.00617 kPa
1081 K | 0.00851 kPa
1082 K | 0.00537 kPa
1091 K | 0.00851 kPa
1092 K | 0.0112 kPa
1093 K | 0.00708 kPa
1102 K | 0.0141 kPa
1105 K | 0.00912 kPa
1117 K | 0.0117 kPa
